{
  "source": "patent US5556856A",
  "about": "“Phthalazinone derivatives that modulate multi-drug resistance” (Asta Medica Aktiengesellschaft, priority 1992, dated 1996)",
  "key": {"[1]": {"system": "acetic acid induced writhing", "assay": "Acetic acid induced Writhing Test (IWRAC)", "format": "in vivo", "conditions": "mouse; for Analgesic effect in test model IWRAC: 6 mg/kg p.o.; for ED50: po, read-out: Analgesic effect in test model IWRAC, ED50", "experimental": "(§1) The peripheral analgesic effect was shown in the model of the Writhing Test (IWRAC) and in the model of the Randall-Selitto inflammation pain test (IRS).\n^a IWRAC = Acetic acid induced Writhing Test. Data in % refer to a\ndose of 6 mg/kg p.o. (mouse). The ED50 values are given in mg/kg."}, "inflammation pain": {"system": "inflammation pain", "assay": "Randall-Selitto inflammation pain test (IRS)", "format": "in vivo", "conditions": "rat; for Analgesic effect in test model IRS: 10 mg/kg p.o.; for ED50: po, read-out: Analgesic effect in test model IRS, ED50", "experimental": "as §1\n^b IRS = RandallSelitto inflammation pain test. Data in % refer to a\ndose or 10 mg/kg p.o. (rat). The ED50 values are given in mg/kg."}, "[2]": {"system": "right anteior papillary muscle", "assay": "Antiarrhythmic properties in rabbit cardiac preparations, right anterior papillary muscle (conduction time)", "conditions": "Oryctolagus cuniculus, 1 h, 60 minutes, read-out: Conduction time, change in percentage from control", "experimental": "(§2) The antiarrhythmic effect was tested by the following experimental procedure:\n(§3) Twenty young rabbits of mixed breed and either sex, weighing 1475±75 g (mean±S.E.), were used. The animals were sacrificed by a blow on the head, their heart was isolated and the left atrium, a strip of the anterior free wall of the right ventricle, as well as one of the papillary muscles of the right ventricle were dissected and pinned to the bottom (`non-toxic` rubber) of a thermostated organic bath, containing modified Locke's solution. The composition of the solution was the following: Na^+ 140; K^+ 5.63; Ca^2+ 2.17; glucose 11, HCO3 25; CL 125; total 309 mmol/l, pH 7.4. Continuous stirring and oxygenation of the solution were maintained by the bubbling of a mixture of 95% O2 and 5% CO2. The temperature of the organ bath was kept at 32° C. […] During the experiments the following electro-physiological parameters were determined: electrical threshold, effective refractory period and conduction time. The effective refractory period (i.e. the least interval between two successive electro-mechanical responses) was measured by applying a threefold-threshold test stimulus (1 msec, square waves) delivered from a DISA Multistim at various times following the pacing impulse. Conduction time was measured on an oscilloscope (Tektronis 2230) as a distance (i.e. time) between the artifact of the pacing stimulus and the appearance of the subsequent surface potential recorded via bipolar platinum electrodes. The auxotonically measured contractility (maximum contractile force) was also followed (papillary muscle, left atrium).\n(§4) After a 60 min equilibrium in the control solution, the preparations were exposed to 10 μM of the test substance for a period of 60 min. Except for the effect on the effective refractory periods (determined at the 30th and 60th min only) all the other parameters were measured in every 15th min, i.e. four times in the presence of a given concentration of the compound examined. […]"}, "left atrial myocardium": {"system": "left atrial myocardium", "assay": "Antiarrhythmic properties in rabbit cardiac preparations, left atrial myocardium", "conditions": "Oryctolagus cuniculus, 1 h, 60 minutes; for activation at 10 µM: left atrial myocardium; for inhibition at 10 µM: left auricle, read-out: Contractility, change in percentage from control", "experimental": "as §2\n(§5) Twenty young rabbits of mixed breed and either sex, weighing 1475±75 g (mean±S.E.), were used. The animals were sacrificed by a blow on the head, their heart was isolated and the left atrium, a strip of the anterior free wall of the right ventricle, as well as one of the papillary muscles of the right ventricle were dissected and pinned to the bottom (`non-toxic` rubber) of a thermostated organic bath, containing modified Locke's solution. The composition of the solution was the following: Na^+ 140; K^+ 5.63; Ca^2+ 2.17; glucose 11, HCO3 25; CL 125; total 309 mmol/l, pH 7.4. Continuous stirring and oxygenation of the solution were maintained by the bubbling of a mixture of 95% O2 and 5% CO2. The temperature of the organ bath was kept at 32° C. The isolated left atrium, papillary muscle and the strip prepared from the anterior free wall of the right ventricle were electrically paced by rectangular electric impulses of 1 msec duration, twice-threshold intensity and a 100 per min frequency. During the experiments the following electro-physiological parameters were determined: electrical threshold, effective refractory period and conduction time. The effective refractory period (i.e. the least interval between two successive electro-mechanical responses) was measured by applying a threefold-threshold test stimulus (1 msec, square waves) delivered from a DISA Multistim at various times following the pacing impulse. Conduction time was measured on an oscilloscope (Tektronis 2230) as a distance (i.e. time) between the artifact of the pacing stimulus and the appearance of the subsequent surface potential recorded via bipolar platinum electrodes. The auxotonically measured contractility (maximum contractile force) was also followed (papillary muscle, left atrium).\n(§6) After a 60 min equilibrium in the control solution, the preparations were exposed to 10 μM of the test substance for a period of 60 min. Except for the effect on the effective refractory periods (determined at the 30th and 60th min only) all the other parameters were measured in every 15th min, i.e. four times in the presence of a given concentration of the compound examined.\n(§7) The values given in the Tables and Figures are means ±S.E. The effect of compounds on the various parameters was estimated statistically by the t-test (Student-Welch); P values<0.05 were regarded as significant.\n(§8) Antiarrhythmic properties in rabbit cardiac\n(§9) incubation time with drugs 60 minutes\n(§10) change in percentage from control"}, "right anterior free wall": {"system": "right anterior free wall", "assay": "Antiarrhythmic properties in rabbit cardiac preparations, right anterior free wall", "conditions": "Oryctolagus cuniculus, 1 h, 60 minutes, read-out: Electrical threshold, change in percentage from control", "experimental": "as §2, §3, §4"}, "[3]": {"system": "right ventricular papillary muscle", "assay": "Antiarrhythmic properties in rabbit cardiac preparations, right ventricular papillary muscle", "conditions": "Oryctolagus cuniculus, 1 h, 60 minutes; for inhibition at 10 µM: papillary muscle, read-out: Contractility, change in percentage from control; for activation at 10 µM: right ventricular papillary muscle", "experimental": "as §2, §5, §6, §7, §8, §9, §10"}, "[4]": {"conditions": "read-out: Conduction time, change in percentage from control"}, "[5]": {"conditions": "read-out: Effective refractory period, change in percentage from control"}, "[6]": {"conditions": "read-out: Electrical threshold, change in percentage from control"}},
  "note": "Read-outs that look alike come from different tables or passages of the source.",
  "data": [
    {"smiles": "O=c1c2ccccc2c(Cc2ccc(Cl)cc2)nn1C1CCCN(CCc2ccccc2)CC1", "note": "(centres unmarked)", "values": [
      {"measurement": "Analgesic effect in test model IWRAC", "setting": "[1]", "result": 91, "unit": "%"},
      {"measurement": "Analgesic effect in test model IRS", "setting": "inflammation pain", "result": 77, "unit": "%"}
    ]},
    {"smiles": "O=c1c2ccccc2c(Cc2ccc(F)cc2)nn1C1CCCN(Cc2ccccc2)CC1", "note": "(centres unmarked)", "values": [
      {"measurement": "Analgesic effect in test model IWRAC", "setting": "[1]", "result": 75, "unit": "%"},
      {"measurement": "Analgesic effect in test model IRS", "setting": "inflammation pain", "result": 53, "unit": "%"}
    ]},
    {"smiles": "O=c1c2ccccc2c(Cc2ccc(F)cc2)nn1C1CCCN(CCc2ccccc2)CC1", "note": "(centres unmarked)", "values": [
      {"measurement": "ED50", "setting": "[1]", "result": 2.7, "unit": "mg/kg"},
      {"measurement": "Analgesic effect in test model IRS", "setting": "inflammation pain", "result": 54, "unit": "%"}
    ]},
    {"smiles": "O=c1c2ccccc2c(Cc2ccc(F)cc2)nn1C1CCN(CCCc2ccccc2)CC1", "values": [
      {"measurement": "Analgesic effect in test model IWRAC", "setting": "[1]", "result": 77, "unit": "%"},
      {"measurement": "Analgesic effect in test model IRS", "setting": "inflammation pain", "result": 67, "unit": "%"}
    ]},
    {"smiles": "O=c1c2ccccc2c(Cc2ccc(F)cc2)nn1C1CCN(CCCc2ccc(F)cc2)CC1", "values": [
      {"measurement": "Analgesic effect in test model IWRAC", "setting": "[1]", "result": 67, "unit": "%"},
      {"measurement": "Analgesic effect in test model IRS", "setting": "inflammation pain", "result": 52, "unit": "%"}
    ]},
    {"smiles": "CCOC(=O)CCN1CCC(n2nc(Cc3ccc(Cl)cc3)c3ccccc3c2=O)CC1", "values": [
      {"measurement": "Analgesic effect in test model IWRAC", "setting": "[1]", "result": 67, "unit": "%"},
      {"measurement": "Analgesic effect in test model IRS", "setting": "inflammation pain", "result": 50, "unit": "%"}
    ]},
    {"smiles": "O=c1c2ccccc2c(Cc2ccccc2Cl)nn1C1CCCN(CCc2ccccc2)CC1", "note": "(centres unmarked)", "values": [
      {"measurement": "ED50", "setting": "[1]", "result": 4.1, "unit": "mg/kg"},
      {"measurement": "ED50", "setting": "inflammation pain", "result": 4.7, "unit": "mg/kg"}
    ]},
    {"smiles": "O=c1c2ccccc2c(Cc2ccco2)nn1C1CCCN(CCc2ccccc2)CC1", "note": "(centres unmarked)", "values": [
      {"measurement": "Analgesic effect in test model IRS", "setting": "inflammation pain", "result": 40, "unit": "%"}
    ]},
    {"smiles": "O=c1c2ccccc2c(Cc2ccc(F)cc2)nn1C1CCCN(CCc2ccccc2)CC1", "note": "(racemic) [D-18024]", "values": [
      {"measurement": "activation at 10 µM", "setting": "[2]", "result": 103, "unit": "%"},
      {"measurement": "activation at 10 µM", "setting": "left atrial myocardium; [4]", "result": 91, "unit": "%"},
      {"measurement": "activation at 10 µM", "setting": "left atrial myocardium; [5]", "result": 66, "unit": "%"},
      {"measurement": "activation at 10 µM", "setting": "left atrial myocardium; [6]", "result": 12, "unit": "%"},
      {"measurement": "inhibition at 10 µM", "setting": "left atrial myocardium", "result": 39, "unit": "%"},
      {"measurement": "activation at 10 µM", "setting": "right anterior free wall", "result": -1, "unit": "%"},
      {"measurement": "inhibition at 10 µM", "setting": "[3]", "result": 48, "unit": "%"},
      {"measurement": "activation at 10 µM", "setting": "[3]; [5]", "result": 7, "unit": "%"},
      {"measurement": "activation at 10 µM", "setting": "[3]; [6]", "result": 29, "unit": "%"}
    ]},
    {"smiles": "O=c1c2ccccc2c(Cc2ccc(F)cc2)nn1C1CN2CCC1CC2", "note": "(centres unmarked) [4-F-Phenyl 3-Chinuclidyl]", "values": [
      {"measurement": "ED50", "setting": "[1]", "result": 4.6, "unit": "mg/kg"},
      {"measurement": "ED50", "setting": "inflammation pain", "result": 1.5, "unit": "mg/kg"}
    ]},
    {"smiles": "CN1CCCC(n2nc(Cc3ccc(Cl)cc3)c3ccccc3c2=O)CC1", "note": "(centres unmarked) [Azelastine]", "values": [
      {"measurement": "activation at 10 µM", "setting": "[2]", "result": 50, "unit": "%"},
      {"measurement": "activation at 10 µM", "setting": "left atrial myocardium; [4]", "result": 40, "unit": "%"},
      {"measurement": "activation at 10 µM", "setting": "left atrial myocardium; [5]", "result": 12, "unit": "%"},
      {"measurement": "activation at 10 µM", "setting": "left atrial myocardium; [6]", "result": 25, "unit": "%"},
      {"measurement": "activation at 10 µM", "setting": "right anterior free wall", "result": 29, "unit": "%"},
      {"measurement": "activation at 10 µM", "setting": "[3]; [5]", "result": 9, "unit": "%"},
      {"measurement": "activation at 10 µM", "setting": "[3]; [6]", "result": 22, "unit": "%"}
    ]},
    {"smiles": "CN1[C@@H]2CC[C@H]1C[C@@H](OC(=O)c1c[nH]c3ccccc13)C2", "note": "[ICS-205930]", "values": [
      {"measurement": "activation at 10 µM", "setting": "[2]", "result": 111, "unit": "%"},
      {"measurement": "activation at 10 µM", "setting": "left atrial myocardium; [4]", "result": 57, "unit": "%"},
      {"measurement": "activation at 10 µM", "setting": "left atrial myocardium; [5]", "result": 26, "unit": "%"},
      {"measurement": "activation at 10 µM", "setting": "left atrial myocardium; [6]", "result": 51, "unit": "%"},
      {"measurement": "inhibition at 10 µM", "setting": "left atrial myocardium", "result": 33, "unit": "%"},
      {"measurement": "activation at 10 µM", "setting": "right anterior free wall", "result": 51, "unit": "%"},
      {"measurement": "inhibition at 10 µM", "setting": "[3]", "result": 29, "unit": "%"},
      {"measurement": "activation at 10 µM", "setting": "[3]; [5]", "result": 21, "unit": "%"},
      {"measurement": "activation at 10 µM", "setting": "[3]; [6]", "result": 34, "unit": "%"}
    ]},
    {"smiles": "O=c1c2ccccc2c(Cc2ccccc2)nn1C1CN2CCC1CC2", "note": "(centres unmarked) [Phenyl 3-Chinuclidyl]", "values": [
      {"measurement": "ED50", "setting": "[1]", "result": 3, "unit": "mg/kg"},
      {"measurement": "ED50", "setting": "inflammation pain", "result": 1.5, "unit": "mg/kg"}
    ]}
  ]
}
